Measurements as given in paper PMC11436758, “Computer-aided drug design to generate a unique antibiotic family” (Nature Communications, 2024).
Converted amounts (≈) assume the structure as drawn. “And” between values parts separate entries of the source, which are not always exact repeats. Identical values can stand only once. Like-named read-outs stand apart in the source and are kept apart here.

How the values were obtained:
E. coli (D22) = test: MIC, outer-membrane-permeable lpxC point mutant; type: cell-based; settings: Escherichia coli
Description: (§1) The outer membrane of Gram-negative bacteria is a robust permeability barrier that prevents many antibiotics from entering Gram-negative cells[46],[47]. The outer leaflet of this outer membrane is primarily composed of the unique lipid lipopolysaccharide (LPS). Strains of E. coli with point mutations in genes coding for LPS biosynthetic enzymes have been isolated that enable some antibiotics to effectively pass through the outer membrane enabling activity against these strains of E. coli[48]–[54]; one such strain is E. coli (D22) which contains a point mutation in the lpxC gene.
(§2) The medium employed for the assay was Mueller Hinton II Broth (MHB II; Becton-Dickinson, Sparks, MD, USA). Agar plates used for the organisms were trypticase soy agar plus 5% sheep blood (BD; Sparks, MD, USA). MIC assay plates were prepared using the CLSI broth microdilution procedure. Automated liquid handlers (Multidrop 384, Biomek 2000 and Biomek FX) were used to conduct serial dilutions and liquid transfers. A standardized inoculum of each organism was prepared per CLSI methods. Suspensions were prepared to equal a 0.5 McFarland standard, followed by a 1:20 dilution in test media. […] The microplates were viewed from the bottom using a plate viewer and the MIC was read. The MIC was recorded as the lowest concentration of drug that inhibited visible growth of the organism. […]

MRSA (ATCC 33591) = test: MIC, CLSI broth microdilution; type: cell-based, S. aureus; settings: three individual replicates
Protocol: The medium employed for the assay was Mueller Hinton II Broth (MHB II; Becton-Dickinson, Sparks, MD, USA). Agar plates used for the organisms were trypticase soy agar plus 5% sheep blood (BD; Sparks, MD, USA). MIC assay plates were prepared using the CLSI broth microdilution procedure. Automated liquid handlers (Multidrop 384, Biomek 2000 and Biomek FX) were used to conduct serial dilutions and liquid transfers. A standardized inoculum of each organism was prepared per CLSI methods. Suspensions were prepared to equal a 0.5 McFarland standard, followed by a 1:20 dilution in test media. The inocula were dispensed into sterile reservoirs divided by length (Beckman Colter) and the Biomek 2000 was used to inoculate the plates. Daughter plates were placed on the Biomek 2000 work surface in reverse orientation so that inoculation took place from low to high drug concentration. The Biomek 2000 delivered 10 μL of the diluted suspension into each well. These inoculations yielded a final cell concentration in the daughter plates of ~5 × 10^5 colony-forming units/mL in each well. The wells of the daughter plates ultimately contained 185 μL of broth, 5 μL of drug solution, and 10 μL of bacterial inoculum. Plates were covered with a sterile lid on the top plate, placed in plastic bags, and incubated at 35 °C for ~18 h. The microplates were viewed from the bottom using a plate viewer and the MIC was read. The MIC was recorded as the lowest concentration of drug that inhibited visible growth of the organism. Uninoculated solubility control plates were also observed for evidence of drug precipitation.

HEK293 cells = test: cells; type: cell-based; settings: Homo sapiens, Hek293 cells, 24 hrs
Protocol: (§3) Stock solutions of the test agents were prepared in DMSO (40 mg/mL) and stored at −20 °C until use. AlamarBlue HS™ cell viability reagent was acquired from Invitrogen (Cat # A50100, Carlsbad, CA). COS7 and HEK293 cells (obtained from ATCC) were cultured and tested at 37 °C in a 5% CO2/100% humidity environment in DMEM media supplemented with 10% fetal bovine serum. Cells were trypsinized, centrifuged, resuspended in cell media, counted on a hemacytometer, and diluted to an appropriate cell density to give the desired number of cells per 300 μl media. Cells were then loaded into 48-well cell culture plates (3548; Corning, Inc.); 300 μl/well at 60,000 cells per well. The cell density was determined in preliminary tests to give linear AlamarBlue HS™ readings over a 3.5 h period for HEK293 cells and 2 h period for COS7 cells after 2 days of growth; 2 wells per plate were loaded with 300 μl/well of cell-free media to provide background readings. Plates were cultured overnight, after which test agent solutions were prepared in media at the highest test concentration (100 ug/mL) and at five serial dilutions, each containing 0.25% DMSO and 0.125% Kolliphor® EL (Cat# 27963, Sigma Aldrich). The compounds concentrations were then loaded in separate columns via 300 μl/well. […] Normalized values representing the amount of AlamarBlue converted to its […] form were calculated for each well using background-corrected absorbances as described by the Alamar-Blue HS protocol information packet available from Invitrogen Technical Support. The fraction of control viability for each agent concentration with each cell line was then determined by the ratio of normalized values for the treated wells to the control wells. […] Values were determined by linear interpolation of fraction of control growth against concentration for the test agent concentrations.

COS7 cells = test: cells; type: cell-based; settings: for IC50: Chlorocebus aethiops, COS-7, COS7 cells, 24 hrs
Protocol: as §3

in vitro = type: cell-based
Protocol: as §3

wild-type AcpS = target: T1, wild-type AcpS (Escherichia coli, UniProt P24224); test: Inhibition of purified wild-type AcpS by DNM0547; type: biochemical, E. coli; settings: for AcpS rate nM/min, Mean / AcpS rate: Suppl Fig 3, [AcpS_WT] 5 nM; for AcpS rate: replicates
T1 construct: 6x-His (C); made in house
T1 sequence (P24224 whole entry): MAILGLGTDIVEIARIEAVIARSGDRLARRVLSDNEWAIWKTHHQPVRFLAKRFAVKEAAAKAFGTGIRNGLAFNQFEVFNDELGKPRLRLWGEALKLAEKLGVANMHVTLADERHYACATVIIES

[1] = Histopathology (H&E) of treated rabbit ischemic ear wounds, dermal toxicity
Protocol: Wounds were excised, fixed, and routine H&E staining was performed. Wounds were examined for pathology and scored in a blinded manner.
Post-wounding, under anesthesia, animals were euthanized with an intravenous injection of Beuthanasia-D at a dosage of 150 mg/kg of body weight. Specimens including the entire wound, along with ~2–3 mm of the normal unwounded skin margins were harvested. Each ear wound specimen was sectioned into halves. For one half of the wound, the wound was placed into a container with 10% neutral buffered formalin and processed for routine histological evaluation. Wounds were scored on a scale of 0–4 at the wound site for erythema, edema, inflammation, granulation, angiogenesis, and epithelialization. Wounds were characterized in a blinded manner by a board-certified member of the College of American Pathologists.

wild type (K12) E. coli = test: MIC, wild type E. coli; type: cell-based; settings: Escherichia coli
Description: as §1, §2

[2] = read-out: IC50 (cell viability)
[3] = read-out: Log IC50 (cell viability) (converted)

What does the source list for `CC(C)c1cc(Cl)ccc1-c1cc(-c2nnn[nH]2)c(-c2ccc(Cl)cc2C(C)C)s1` [DNM0547]?
MIC (E. coli (D22)): 32 µg/mL (≈ 70 µM); MIC (MRSA (ATCC 33591)): 2 µg/mL (≈ 4.37 µM); IC50 (HEK293 cells; [2]): 41.5 µg/mL (≈ 90.8 µM); IC50 (HEK293 cells; [3]): 41.5 µg/mL (≈ 90.7 µM); IC50 (COS7 cells; [2]): 21.2 µg/mL (≈ 46.3 µM); IC50 (COS7 cells; [3]): 21.2 µg/mL (≈ 46.3 µM); Fluorescence (FI) (COS7 cells; Suppl Fig 9, COS7 cells, Alamar Blue HS, Conc. 40000 ng/ml): 261 FI; CC50 at 24 h (in vitro; African green monkey): 21 µg/mL (≈ 45.9 µM); CC50 at 24 h (in vitro; human): 41 µg/mL (≈ 89.6 µM); IC50 (wild-type AcpS): 5.1 µM; AcpS rate nM/min, Mean (wild-type AcpS; Drug Conc 1 uM): 40.51 nM/min; AcpS rate (wild-type AcpS; Drug Conc 1 uM): 41.16 nM/min and 37.27 nM/min and 43.10 nM/min; AcpS rate nM/min, Mean (wild-type AcpS; Drug Conc 2 uM): 36.72 nM/min; AcpS rate (wild-type AcpS; Drug Conc 2 uM): 35.90 nM/min and 37.65 nM/min and 36.61 nM/min; AcpS rate nM/min, Mean (wild-type AcpS; Drug Conc 4 uM): 24.24 nM/min; AcpS rate (wild-type AcpS; Drug Conc 4 uM): 27.20 nM/min and 22.45 nM/min and 23.08 nM/min; AcpS rate nM/min, Mean (wild-type AcpS; Drug Conc 8 uM): 14.81 nM/min; AcpS rate (wild-type AcpS; Drug Conc 8 uM): 14.57 nM/min and 15.17 nM/min and 14.69 nM/min; AcpS rate nM/min, Mean (wild-type AcpS; Drug Conc 16 uM): 6.58 nM/min; AcpS rate (wild-type AcpS; Drug Conc 16 uM): 5.73 nM/min and 8.26 nM/min and 5.76 nM/min; AcpS rate nM/min, Mean (wild-type AcpS; Drug Conc 32 uM): 2.47 nM/min; AcpS rate (wild-type AcpS; Drug Conc 32 uM): 2.50 nM/min and 2.59 nM/min and 2.33 nM/min; AcpS rate nM/min, Mean (wild-type AcpS; Drug Conc 64 uM): 1.94 nM/min; AcpS rate (wild-type AcpS; Drug Conc 64 uM): 1.85 nM/min and 1.95 nM/min and 2.00 nM/min; AcpS rate nM/min, Mean (wild-type AcpS; Drug Conc 128 uM): 1.59 nM/min; AcpS rate (wild-type AcpS; Drug Conc 128 uM): 1.43 nM/min and 1.51 nM/min and 1.82 nM/min; remaining activity at 1 µM (wild-type AcpS; read-out: % of untreated, Suppl Fig 3, [AcpS_WT] 5 nM, Drug Conc 1 uM, replicates): 99.1%; remaining activity at 2 µM (wild-type AcpS; read-out: % of untreated, Suppl Fig 3, [AcpS_WT] 5 nM, Drug Conc 2 uM, replicates): 86.4%; remaining activity at 4 µM (wild-type AcpS; read-out: % of untreated, Suppl Fig 3, [AcpS_WT] 5 nM, Drug Conc 4 uM, replicates): 65.5%; remaining activity at 8 µM (wild-type AcpS; read-out: % of untreated, Suppl Fig 3, [AcpS_WT] 5 nM, Drug Conc 8 uM, replicates): 35.1%; remaining activity at 16 µM (wild-type AcpS; read-out: % of untreated, Suppl Fig 3, [AcpS_WT] 5 nM, Drug Conc 16 uM, replicates): 13.8%; remaining activity at 32 µM (wild-type AcpS; read-out: % of untreated, Suppl Fig 3, [AcpS_WT] 5 nM, Drug Conc 32 uM, replicates): 6.02%; remaining activity at 64 µM (wild-type AcpS; read-out: % of untreated, Suppl Fig 3, [AcpS_WT] 5 nM, Drug Conc 64 uM, replicates): 4.46%; remaining activity at 128 µM (wild-type AcpS; read-out: % of untreated, Suppl Fig 3, [AcpS_WT] 5 nM, Drug Conc 128 uM, replicates): 3.45%; toxicity to dermal cells, histopathology ([1]; 2% cream, 18 days of exposure of the rabbit ear wound): no indication of toxicity; erythema, edema, angiogenesis and epithelization scores ([1]; 2% cream, 18 days, compared to 2% mupirocin or cream control): improved; Angiogenesis ([1]; Suppl Fig 7, score per wound): 1 and 2; Edema ([1]; Suppl Fig 7, score per wound): 1 and 2; Erythema ([1]; Suppl Fig 7, score per wound): 1 and 2; Granulation ([1]; Suppl Fig 7, score per wound): 2 and 1; Inflammation ([1]; Suppl Fig 7, score per wound): 2 and 3 and 4; MIC (wild type (K12) E. coli): 256 µg/mL (≈ 560 µM)
